{
  "source": "patent US11993600B2",
  "about": "“Saturated spirocyclics as antiviral agents” (ENANTA PHARMACEUTICALS, INC., priority 2021, dated 2024)",
  "note": "pIC50: −log10 of the molar value.",
  "data": [
    {"target": "SARS-CoV-2 3CL-protease (Severe acute respiratory syndrome coronavirus 2 (2019-nCoV) (SARS-CoV-2), UniProt P0DTD1)", "assay": "SARS-CoV-2 3C-like (3CL) protease fluorescence assay (FRET)", "type": "biochemical", "details": "recombinant SARS-CoV-2 3CL-protease 10 nM, 30 min preincubation at RT, substrate 40 μM, run in duplicate", "values": [
      {"smiles": "CN(C(=O)c1cc2c(F)cc(F)cc2[nH]1)[C@@H](CC(C)(C)F)C(=O)N1C[C@]2(CCNC2=O)C[C@H]1C#N", "note": "[Compound 1, N—((S)-1-((3S,5S)-3-cyano-6-oxo-2,7-diazaspiro[4.4]nonan-2-yl)-4-fluoro-4-methyl-1-oxopentan-2-yl)-4,6-difluoro-N-methyl-1H-indole-2-carboxamide]", "pIC50": "> 7.00"},
      {"smiles": "CN(C(=O)c1cc2c(F)cc(F)cc2[nH]1)[C@@H](CC(C)(C)F)C(=O)N1C[C@]2(CCCNC2=O)C[C@H]1C#N", "note": "[Compound 3, N—((S)-1-((3S,5S)-3-cyano-6-oxo-2,7-diazaspiro[4.5]decan-2-yl)-4-fluoro-4-methyl-1-oxopentan-2-yl)-4,6-difluoro-N-methyl-1H-indole-2-carboxamide]", "pIC50": "> 7.00"},
      {"smiles": "CC(C)C[C@@H](C(=O)N1C[C@]2(CCCNC2=O)C[C@H]1C#N)N(C)C(=O)c1cc2c(F)cc(F)cc2[nH]1", "note": "[Compound 2, N—((S)-1-((3S,5S)-3-cyano-6-oxo-2,7-diazaspiro[4.5]decan-2-yl)-4-methyl-1-oxopentan-2-yl)-4,6-difluoro-N-methyl-1H-indole-2-carboxamide]", "pIC50": "> 7.00"},
      {"smiles": "CC(C)C[C@@H](C(=O)N1C[C@]2(CCC3(CC3)NC2=O)C[C@H]1C#N)N(C)C(=O)c1cc2c(F)cc(F)cc2[nH]1", "note": "[Compound 4, N—((S)-1-((6S,9S)-9-cyano-5-oxo-4,8-diazadispiro[2.2.4^6.2^3]dodecan-8-yl)-4-methyl-1-oxopentan-2-yl)-4,6-difluoro-N-methyl-1H-indole-2-carboxamide]", "pIC50": "> 7.00"}
    ]}
  ]
}
